Consider two compounds from publication PMC4937658, “Effects of dalfampridine and its metabolites on cloned human potassium channels Kv 1.1, Kv 1.2, and Kv 1.4 expressed in human embryonic kidney cells” (Journal of Drug Assessment, 2013).

Holding throughout (test): automated whole-cell patch clamp (PatchXpress), peak current
Holding throughout (format): cell-based

One experiment has as its target T1, Kv 1.4 (Homo sapiens, UniProt P22459).
T1 construct: gene KCNA4; cDNA stably transfected in HEK293 cells; expressed alone (homotetramer)
An excerpt:
automated whole-cell patch clamp (PatchXpress), peak current on Kv 1.4

The target of a further experiment is T2, Kv 1.1 (Homo sapiens, UniProt Q09470).
T2 construct: gene KCNA1; cDNA stably transfected in HEK293 cells; expressed alone (homotetramer)
T2 sequence (Q09470 whole entry): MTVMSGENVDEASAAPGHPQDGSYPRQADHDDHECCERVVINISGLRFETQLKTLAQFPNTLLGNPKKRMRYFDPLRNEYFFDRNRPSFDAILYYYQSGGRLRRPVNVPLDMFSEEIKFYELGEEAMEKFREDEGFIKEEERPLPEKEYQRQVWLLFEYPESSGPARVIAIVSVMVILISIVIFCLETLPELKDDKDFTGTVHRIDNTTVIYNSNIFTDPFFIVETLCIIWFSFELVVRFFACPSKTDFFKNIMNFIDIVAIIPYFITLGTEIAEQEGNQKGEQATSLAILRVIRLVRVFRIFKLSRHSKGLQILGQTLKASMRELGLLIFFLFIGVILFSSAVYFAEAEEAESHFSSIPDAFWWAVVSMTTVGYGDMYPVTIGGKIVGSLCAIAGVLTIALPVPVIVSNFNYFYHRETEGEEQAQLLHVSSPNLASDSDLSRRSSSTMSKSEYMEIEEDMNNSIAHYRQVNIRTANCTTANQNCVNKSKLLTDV
An excerpt:
automated whole-cell patch clamp (PatchXpress), peak current on Kv 1.1

The target of a further experiment is T3, Kv 1.2 (Homo sapiens, UniProt P16389).
T3 construct: gene KCNA2; cDNA stably transfected in HEK293 cells; expressed alone (homotetramer)
T3 sequence (P16389 whole entry): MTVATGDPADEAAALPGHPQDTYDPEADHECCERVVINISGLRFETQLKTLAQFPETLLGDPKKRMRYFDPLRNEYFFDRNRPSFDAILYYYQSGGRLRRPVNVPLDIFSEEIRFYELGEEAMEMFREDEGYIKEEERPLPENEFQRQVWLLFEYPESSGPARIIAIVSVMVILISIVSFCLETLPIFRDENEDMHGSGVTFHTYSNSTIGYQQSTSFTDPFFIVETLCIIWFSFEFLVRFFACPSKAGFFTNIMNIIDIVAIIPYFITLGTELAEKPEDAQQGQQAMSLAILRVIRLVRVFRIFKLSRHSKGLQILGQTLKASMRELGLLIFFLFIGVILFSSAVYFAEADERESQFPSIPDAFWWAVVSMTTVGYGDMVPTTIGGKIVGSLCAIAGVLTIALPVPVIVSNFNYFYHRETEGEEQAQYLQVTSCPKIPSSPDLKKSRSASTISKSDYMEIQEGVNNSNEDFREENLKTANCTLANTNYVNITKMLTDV
The source says: automated whole-cell patch clamp (PatchXpress), peak current on Kv 1.2

Structures can show the parent of a compound that is named as a salt.

T1 sequence (P22459 whole entry): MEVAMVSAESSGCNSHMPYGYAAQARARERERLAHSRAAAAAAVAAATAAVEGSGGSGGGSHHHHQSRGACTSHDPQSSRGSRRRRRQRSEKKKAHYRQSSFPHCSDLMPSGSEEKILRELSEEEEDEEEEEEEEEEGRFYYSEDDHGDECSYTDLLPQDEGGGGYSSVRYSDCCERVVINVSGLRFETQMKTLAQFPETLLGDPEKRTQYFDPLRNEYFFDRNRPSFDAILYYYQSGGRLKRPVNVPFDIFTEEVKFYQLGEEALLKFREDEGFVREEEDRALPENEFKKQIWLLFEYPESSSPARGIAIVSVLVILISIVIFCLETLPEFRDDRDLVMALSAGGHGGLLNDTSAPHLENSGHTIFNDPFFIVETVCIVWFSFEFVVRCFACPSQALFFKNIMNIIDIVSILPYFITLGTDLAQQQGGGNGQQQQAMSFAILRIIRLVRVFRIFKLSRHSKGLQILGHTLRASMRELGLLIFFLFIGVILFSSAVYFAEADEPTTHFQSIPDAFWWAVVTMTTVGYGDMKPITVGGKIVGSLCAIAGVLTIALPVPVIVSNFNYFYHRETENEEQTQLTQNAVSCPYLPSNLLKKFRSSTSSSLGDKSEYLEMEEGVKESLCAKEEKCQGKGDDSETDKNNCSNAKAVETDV

Turning to `Nc1ccncc1OS(=O)(=O)O` [3-hydroxy-4-aminopyridine sulfate], the results for the IC50 on Kv 1.4, at Kv 1.1 and against Kv 1.2 were above 50000 µM, 30300 µM and 21400 µM, respectively.

With `Nc1ccncc1O` [3-hydroxy-4-aminopyridine], the IC50 on Kv 1.4 was 23200 µM; on Kv 1.1, 7890 µM; against Kv 1.2, 23700 µM.
